In brackets after ≈: the same amount, converted by molar mass. One block for each molecule: values may come before it.
What was measured:
C. glabrata MTCC 3019 = test: MIC, microtiter plate dilution assay; type: cell-based; parameters: key to MIC value: R = resistant; details: 5 × 10^5 CFU/ml, 37°C, OD 600 nm after 48 h
Description: (§1) The antimicrobial activity of HPLC purified compounds was determined against various test strains including S. aureus MTCC 1430, Vibrio cholera MTCC 3904, Bacillus subtilis MTCC 121, Listeria monocytogenes MTCC 839, C. albicans MTCC 183, C. albicans MTCC 1637, C. albicans MTCC 227, C. tropicalis MTCC 184, C. glabrata MTCC 3019, and C. inconspicua MTCC 1074. Antimicrobial activity was also tested against clinical Candida strains and phytopathogenic fungi viz. Fusarium moniliforme MTCC 158, Alternaria brassicicola MTCC 2102 and Colletotrichum acutatum MTCC 1037. Bacterial and Candida test strains were grown in NB and yeast malt broth (YMB), respectively. Fungal test strains were grown in potato dextrose broth (PDB). Minimum inhibitory concentrations (MICs) of purified compounds were evaluated against test organisms by using a microtiter plate dilution assay. Mid-log-phase test strains (5 × 10^5 CFU/ml) were incubated in a 96-well plate with different concentrations of the lipopeptides for 24–48 h at 37°C (final volume of 200 μl). OD was measured at 600 nm after 24 and 48 h for bacteria and yeast, respectively, using an ELISA microplate reader (Thermo Scientific, United States). MIC against phytopathogenic fungi was determined using the 96-well microtiter plate method ([Sharma et al., 2020]).

C. haemulonii MTCC 2766 = test: MIC, microtiter plate dilution assay; type: cell-based; parameters: key to MIC value: R = resistant; details: 5 × 10^5 CFU/ml, 37°C, OD 600 nm after 48 h
Description: as §1

C. tropicalis MTCC 184 = test: MIC, microtiter plate dilution assay; type: cell-based; parameters: key to MIC value: R = resistant; details: 5 × 10^5 CFU/ml, 37°C, OD 600 nm after 48 h
Description: as §1

C. inconspicua MTCC 1074 = test: MIC, microtiter plate dilution assay; type: cell-based; details: Pichia inconspicua, MTCC1074, YMB, 5 × 10^5 CFU/ml, 37°C, OD 600 nm after 48 h
Description: as §1

C. albicans MTCC 1637 = test: MIC, microtiter plate dilution assay; type: cell-based, Candida albicans; parameters: key to MIC value: R = resistant; details: 5 × 10^5 CFU/ml, 37°C, OD 600 nm after 48 h
Description: as §1

C. albicans MTCC 227 = test: MIC, microtiter plate dilution assay; type: cell-based, Candida albicans; parameters: key to MIC value: R = resistant; details: 5 × 10^5 CFU/ml, 37°C, OD 600 nm after 48 h
Description: as §1

C. albicans 400054 = test: MIC, microtiter plate dilution assay, clinical strain; type: cell-based, Candida albicans; parameters: key to MIC value: R = resistant; details: YMB, 37°C, OD 600 nm after 48 h
Description: (§2) Brevibacillus sp. strains GI-9 and SKDU10 were known to produce class IId bacteriocins identified as laterosporulins a ([Singh et al., 2012]; [Baindara et al., 2016]). Both strains were grown on nutrient agar (NA, Himedia, India). All test strains used in this study were obtained from Microbial Type Culture Collection and Gene bank (MTCC), Chandigarh, India. Clinical Candida strains were obtained from the National Culture Collection of Pathogenic Fungi (NCCPF), PGIMER, Chandigarh, India, and all strains were grown on recommended media.
as §1

C. auris 470126 = test: as above; type: cell-based; parameters: key to MIC value: R = resistant; details: YMB, 37°C, OD 600 nm after 48 h
Description: as §2, §1

C. haemulonii 470125 = test: as above; type: cell-based; parameters: key to MIC value: R = resistant; details: YMB, 37°C, OD 600 nm after 48 h
Description: as §2, §1

C. kefyr 410004 = test: as above; type: cell-based; parameters: key to MIC value: R = resistant; details: YMB, 37°C, OD 600 nm after 48 h
Description: as §2, §1

C. tropicalis 420024 = test: as above; type: cell-based; parameters: key to MIC value: R = resistant; details: YMB, 37°C, OD 600 nm after 48 h
Description: as §2, §1

C. krusei 440009 = test: as above; type: cell-based; details: Pichia kudriavzevii, YMB, 37°C, OD 600 nm after 48 h
Description: as §2, §1

C. parapsilosis 450030 = test: as above; type: cell-based; details: Lodderomyces parapsilosis, YMB, 37°C, OD 600 nm after 48 h
Description: as §2, §1

C. rugosa 470141 = test: as above; type: cell-based; details: Diutina rugosa, YMB, 37°C, OD 600 nm after 48 h
Description: as §2, §1

C. acutatum MTCC1037 = test: MIC against phytopathogenic fungi, 96-well microtiter plate method; type: cell-based, Colletotrichum acutatum; parameters: key: R = resistant; details: PDB
Description: as §1

F. moniliforme MTCC 158 = test: as above; type: cell-based, Fusarium moniliforme; details: Fusarium verticillioides, MTCC158, PDB
Description: as §1

[1] = tested on: A. brassicicola MTCC 2102; test: as above; type: cell-based, Alternaria brassicicola; parameters: key to MIC value: R = resistant
Description: as §1

[2] = tested on: Vigna radiata (Moong) seeds; test: Seed germination-based phytotoxicity assay; details: Vigna radiata seeds soaked in 0.1% solution (positive control), up to 3 days
Description: For hemolysis assay rabbit erythrocytes were treated with different concentrations of purified active antimicrobial compounds ranging from 250 to 750 μg/ml and incubated at 37°C for 24 h in a 5% CO2 incubator. The release of hemoglobin was monitored by measuring the absorbance at 540 nm in a microplate reader. PBS and 0.1% Triton X-100 were used as controls for 0 and 100% hemolysis, respectively ([Singh et al., 2021]). For phytotoxicity assay, sterilized Vigna radiata (Moong) seeds were treated with different concentrations of purified antimicrobial compounds (250–750 μg/ml). Seeds soaked in water and 0.1% mercuric chloride were used as negative and positive control, respectively. Seeds germination was observed up to 3 days of incubation.

C. albicans MTCC 183 = test: MIC, microtiter plate dilution assay; type: cell-based, Candida albicans; details: Candida albicans, MTCC183, YMB, 5 × 10^5 CFU/ml, 37°C, OD 600 nm after 48 h
Description: as §1

MIC value (C. glabrata MTCC 3019; YMB): R | MIC value (C. haemulonii MTCC 2766; YMB): R | MIC value (C. tropicalis MTCC 184; YMB): R | MIC (C. inconspicua MTCC 1074): 50 µg/mL (≈ 163 µM) | MIC value (C. albicans MTCC 1637; YMB): R | MIC value (C. albicans MTCC 227; YMB): R | MIC value (C. albicans 400054): R | MIC value (C. auris 470126): R | MIC value (C. haemulonii 470125): R | MIC value (C. kefyr 410004): R | MIC value (C. tropicalis 420024): R | MIC (C. krusei 440009): 1 µg/mL (≈ 3.27 µM) | MIC (C. parapsilosis 450030): 10 µg/mL (≈ 32.7 µM) | MIC (C. rugosa 470141): 5 µg/mL (≈ 16.3 µM) | MIC value (C. acutatum MTCC1037): R | MIC (F. moniliforme MTCC 158): 10 µg/mL (≈ 32.7 µM) | MIC value ([1]; PDB): R
Compound: OC(Cn1cncn1)(Cn1cncn1)c1ccc(F)cc1F [Fluconazole]

Compound: [Cl][Hg][Cl] [mercuric chloride]
Seed germination [2]: No germination

MIC (C. glabrata MTCC 3019; Nakaseomyces glabratus, MTCC3019, YMB): 25 µg/mL (≈ 27.1 µM) | MIC (C. haemulonii MTCC 2766; Candidozyma haemuli, MTCC2766, YMB): 100 µg/mL (≈ 108 µM) | MIC (C. tropicalis MTCC 184; Candida tropicalis, MTCC184, YMB): 35 µg/mL (≈ 37.9 µM) | MIC (C. inconspicua MTCC 1074): 10 µg/mL (≈ 10.8 µM) | MIC (C. albicans MTCC 183): 5 µg/mL (≈ 5.41 µM) | MIC (C. albicans MTCC 1637; Candida albicans, MTCC1637, YMB): 5 µg/mL (≈ 5.41 µM) | MIC (C. albicans MTCC 227; Candida albicans, MTCC227, YMB): 5 µg/mL (≈ 5.41 µM) | MIC (C. albicans 400054; Candida albicans): 5 µg/mL (≈ 5.41 µM) | MIC (C. auris 470126; Candidozyma auris): 5 µg/mL (≈ 5.41 µM) | MIC (C. haemulonii 470125; Candidozyma haemuli): 50 µg/mL (≈ 54.1 µM) | MIC (C. kefyr 410004; Kluyveromyces marxianus): 50 µg/mL (≈ 54.1 µM) | MIC (C. tropicalis 420024; Candida tropicalis): 50 µg/mL (≈ 54.1 µM) | MIC (C. krusei 440009): 5 µg/mL (≈ 5.41 µM) | MIC (C. parapsilosis 450030): 50 µg/mL (≈ 54.1 µM) | MIC (C. rugosa 470141): 5 µg/mL (≈ 5.41 µM) | MIC value (C. acutatum MTCC1037): R | MIC (F. moniliforme MTCC 158): 50 µg/mL (≈ 54.1 µM) | MIC ([1]; Alternaria brassicicola, MTCC2102, PDB): 50 µg/mL (≈ 54.1 µM)
Compound: C[C@@H]1[C@H](O)[C@@H](C)/C=C/C=C/C=C/C=C/C=C/C=C/C=C/[C@H](O[C@@H]2O[C@H](C)[C@@H](O)[C@H](N)[C@@H]2O)C[C@@H]2O[C@](O)(C[C@@H](O)C[C@@H](O)[C@H](O)CC[C@@H](O)C[C@@H](O)CC(=O)O[C@H]1C)C[C@H](O)[C@H]2C(=O)O [Amphotericin B]

— paper PMC8589628, “Characterization and Antimicrobial Studies of Iturin-Like and Bogorol-Like Lipopeptides From Brevibacillus spp. Strains GI9 and SKDU10” (Frontiers in Microbiology, 2021)
